What was measured:
[1] = Pharmacokinetic and organ distribution studies of Annamycin and L-Annamycin; assay type: in vivo; conditions: CD-1, mouse, lung and plasma, intravenous, 4 mg/kg; AUC, 24 h; read-out: Annamycin levels (AUC, 24 h) in lungs relative to plasma
[2] = target: P-glycoprotein 1 (P-gp) (Homo sapiens, UniProt P08183); conditions: earlier studies; cited from earlier work
[3] = test system: multidrug resistant (MDR) cell lines; conditions: earlier studies; cited from earlier work

Chain of P-glycoprotein 1 (P-gp) (P08183 whole entry, species assumed): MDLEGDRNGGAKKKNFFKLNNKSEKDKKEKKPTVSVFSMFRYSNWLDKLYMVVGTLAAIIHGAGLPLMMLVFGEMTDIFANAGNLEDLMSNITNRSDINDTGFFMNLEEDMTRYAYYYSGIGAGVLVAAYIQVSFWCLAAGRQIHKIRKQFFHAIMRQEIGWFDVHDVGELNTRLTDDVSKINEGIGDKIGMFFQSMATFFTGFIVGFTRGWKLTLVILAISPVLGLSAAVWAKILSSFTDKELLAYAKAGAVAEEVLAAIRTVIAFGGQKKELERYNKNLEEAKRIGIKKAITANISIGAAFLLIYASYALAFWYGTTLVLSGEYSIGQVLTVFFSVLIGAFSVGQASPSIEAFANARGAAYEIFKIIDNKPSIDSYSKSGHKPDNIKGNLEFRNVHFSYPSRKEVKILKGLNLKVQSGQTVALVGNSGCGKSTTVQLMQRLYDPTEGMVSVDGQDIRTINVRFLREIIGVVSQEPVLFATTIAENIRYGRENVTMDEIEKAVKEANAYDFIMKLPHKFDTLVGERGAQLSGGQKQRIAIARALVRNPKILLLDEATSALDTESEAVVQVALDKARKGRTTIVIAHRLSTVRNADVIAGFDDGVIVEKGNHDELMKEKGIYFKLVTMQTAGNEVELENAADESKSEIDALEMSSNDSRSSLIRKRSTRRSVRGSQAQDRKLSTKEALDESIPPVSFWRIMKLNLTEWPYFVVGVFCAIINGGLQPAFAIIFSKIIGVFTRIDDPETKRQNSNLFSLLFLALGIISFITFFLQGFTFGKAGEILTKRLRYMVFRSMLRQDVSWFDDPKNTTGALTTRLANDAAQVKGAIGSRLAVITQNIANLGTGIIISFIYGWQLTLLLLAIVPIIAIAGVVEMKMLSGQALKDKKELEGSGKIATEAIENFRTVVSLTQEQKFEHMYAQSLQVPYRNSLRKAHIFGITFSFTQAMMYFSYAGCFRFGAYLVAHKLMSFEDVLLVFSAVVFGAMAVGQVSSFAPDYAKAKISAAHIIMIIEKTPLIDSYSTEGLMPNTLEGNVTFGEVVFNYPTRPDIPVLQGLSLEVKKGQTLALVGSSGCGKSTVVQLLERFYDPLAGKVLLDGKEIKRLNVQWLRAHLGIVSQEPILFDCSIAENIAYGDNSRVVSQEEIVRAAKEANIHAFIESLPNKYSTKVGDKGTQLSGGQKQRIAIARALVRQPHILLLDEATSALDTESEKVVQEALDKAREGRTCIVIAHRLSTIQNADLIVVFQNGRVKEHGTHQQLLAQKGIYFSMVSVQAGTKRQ

C[C@@H]1O[C@@H](O[C@H]2C[C@](O)(C(=O)CO)Cc3c(O)c4c(c(O)c32)C(=O)c2ccccc2C4=O)[C@H](I)[C@H](O)[C@H]1O [Annamycin, (7S,9S)-7-(((2R,3R,4R,5R,6S)-4,5-dihydroxy-3-iodo-6-methyltetrahydro-2H-pyran-2-yl)oxy)-6,9,11-trihydroxy-9-(2-hydroxyacetyl)-7,8,9,10-tetrahydrotetracene-5,12-dione]
Kp [1]: > 10
substrate for P-glycoprotein 1 (P-gp) [2]: poor substrate
cross-resistance with doxorubicin (DOX) [3]: not cross-resistant
